US8865894B2, “Oxazolidin-2-one compounds and uses thereof” (Novartis AG, priority 2012, dated 2014)

Target: T1, human PI3Kdelta p110 catalytic subunit (Rat-1 pBABEpuro Myr-HA-hp110 delta) (Homo sapiens, UniProt O00329)
T1 construct: Myr (myristoylation signal) (N); HA (N); expressed in transfected cells; host or cells: Rat-1
Test: Cellular assay PI3Kdelta (p-Akt(S473) SureFire, Rat-1_PI3Kdelta cells)
Type: cell-based
Conditions: 1 h compound treatment, read-out: Rat1-PI3Kd/ IC50
Source text: AlphaScreen (Amplified Luminescent Proximity Homogeneous Assay, ALPHA, Perkin Elmer) is a non-radioactive bead-based proximity assay technology to study biomolecular interactions in a homogenous microtiter plate format. The brand name SureFire denotes AlphaScreen assays that are adapted to quantify the phosphorylation of endogenous cellular proteins in cell lysates, by using matched antibody pairs, which consist of an anti-phospho-kinase and an anti-kinase antibody. The assay allows characterization of kinase signaling in cells as well as measurement of kinase inhibitor effects. The AlphaScreen technology provides several advantages over standard assay techniques such as ELISA, as it avoids time-consuming washing procedures and reduces plate handling. Furthermore, it is miniaturizable at least to a 384-well format and provides sensitivity down to the femtomolar range, dependent on the affinity of the antibodies included in the individual AlphaScreen SureFire assay kit. High sensitivity is reached by an intrinsic amplification mechanism, which involves production of singlet oxygen molecules. SureFire assay kits are commercially available for specific targets and include pairs of validated antibodies (PerkinElmer). This report describes common procedures applied for AlphaScreen SureFire assays and respective semi-automated steps for routine kinase inhibitor profiling in cell-based assays.
The Rat-1 cell lines stably overexpressing activated PI3K class I isoforms Rat-1 pBABEpuro Myr-HA-hp110 delta (Rat-1_PI3Kdelta) and Rat-1 pBABEpuro Myr-HA-hp110alpha (Rat-1_PI3Kalpha) and Rat-1 pBABEpuro Myr-HA-hp110 beta (Rat-1_PI3beta) were prepared as described (Maira S M, Stauffer F, Brueggen J, Furet P, Schnell C, Fritsch C, Brachmann S, Chène P, de Pover A, Schoemaker K, Fabbro D, Gabriel D, Simonen M, Murphy L, Finan P, Sellers W, García-Echeverría C (2008), Mol Cancer Ther. 7:1851-63 and Maira S M, Pecchi S, Brueggen J, Huh K, Schnell C, Fritsch C, Nagel T, Wiesmann M, Brachmann S, Dorsch M, Chène P, Schoemaker K, De Pover A, Menezes D, Fabbro D, Sellers W, García-Echeverría C, Voliva C F (2011), Mol. Cancer Ther., accepted). All cell lines were cultivated in complete growth medium (DMEM high glucose, 10% (v/v) fetal bovine serum, 1% (v/v) MEM NEAA, 10 mM HEPES, 2 mM L-glutamine, puromycin (10 μg/mL for Rat-1_PI3Kdelta and Rat-1_PI3Kalpha, 4 ug/mL for Rat-1_PI3beta), 1% (v/v) Pen/Strep) to 90% confluency at 37° C./5% CO2/90% humidity in a humidified CO2 incubator and were split twice a week.
The following materials were used for p-AKT(S473) detection in Rat-1 cell lysates: Dulbecco's modified Eagle's medium (DMEM) high glucose (Gibco Invitrogen, Basel, Switzerland, Cat. No. 41965), Heat Inactivated Fetal Bovine Serum, Qualified (HI FBS; Gibco Invitrogen, Basel, Switzerland, Lot. No. 16140), MEM non essential amino acids (NEAA; Gibco Invitrogen, Basel, Switzerland, Cat. No. 11140), HEPES (Gibco Invitrogen, Basel, Switzerland, Cat. No. 15630), Penicillin/Streptomycin (Pen/Strep, 100×; Gibco Invitrogen, Basel, Switzerland, Cat. No. 15140-122), L-Glutamine (Gibco Invitrogen, Basel, Switzerland, Cat. No. 25030), Puromycin (Sigma Aldrich, Buchs, Switzerland, Cat. No. P9620), DMSO (MERCK, Dietikon, Switzerland, Cat. No. 8.02912.2500), H2O, MilliQ-H2O unless otherwise stated (MILLIPORE QGARDOOR1, Millipore, Zug, Switzerland), Bovine serum albumine (BSA; Sigma Aldrich, Buchs, Switzerland Cat. No. A8412), SureFire p-Akt 1/2 (Ser473) Assay Kit (PerkinElmer, Schwerzenbach, Switzerland, Cat. No. TGRAS50K).
The p-Akt(S473) SureFire assay measures the phosphorylation of endogenous cellular Akt 1/2 at Ser473 in cell lysates. Using Rat-1 cells stably expressing myr-HA-tagged versions of the human PI3Kdelta, PI3Kalpha, or PI3Kbeta p110 catalytic subunit isoforms, the assay was developed as a two-plate protocol in a 384-well format.

T1 sequence (O00329 whole entry): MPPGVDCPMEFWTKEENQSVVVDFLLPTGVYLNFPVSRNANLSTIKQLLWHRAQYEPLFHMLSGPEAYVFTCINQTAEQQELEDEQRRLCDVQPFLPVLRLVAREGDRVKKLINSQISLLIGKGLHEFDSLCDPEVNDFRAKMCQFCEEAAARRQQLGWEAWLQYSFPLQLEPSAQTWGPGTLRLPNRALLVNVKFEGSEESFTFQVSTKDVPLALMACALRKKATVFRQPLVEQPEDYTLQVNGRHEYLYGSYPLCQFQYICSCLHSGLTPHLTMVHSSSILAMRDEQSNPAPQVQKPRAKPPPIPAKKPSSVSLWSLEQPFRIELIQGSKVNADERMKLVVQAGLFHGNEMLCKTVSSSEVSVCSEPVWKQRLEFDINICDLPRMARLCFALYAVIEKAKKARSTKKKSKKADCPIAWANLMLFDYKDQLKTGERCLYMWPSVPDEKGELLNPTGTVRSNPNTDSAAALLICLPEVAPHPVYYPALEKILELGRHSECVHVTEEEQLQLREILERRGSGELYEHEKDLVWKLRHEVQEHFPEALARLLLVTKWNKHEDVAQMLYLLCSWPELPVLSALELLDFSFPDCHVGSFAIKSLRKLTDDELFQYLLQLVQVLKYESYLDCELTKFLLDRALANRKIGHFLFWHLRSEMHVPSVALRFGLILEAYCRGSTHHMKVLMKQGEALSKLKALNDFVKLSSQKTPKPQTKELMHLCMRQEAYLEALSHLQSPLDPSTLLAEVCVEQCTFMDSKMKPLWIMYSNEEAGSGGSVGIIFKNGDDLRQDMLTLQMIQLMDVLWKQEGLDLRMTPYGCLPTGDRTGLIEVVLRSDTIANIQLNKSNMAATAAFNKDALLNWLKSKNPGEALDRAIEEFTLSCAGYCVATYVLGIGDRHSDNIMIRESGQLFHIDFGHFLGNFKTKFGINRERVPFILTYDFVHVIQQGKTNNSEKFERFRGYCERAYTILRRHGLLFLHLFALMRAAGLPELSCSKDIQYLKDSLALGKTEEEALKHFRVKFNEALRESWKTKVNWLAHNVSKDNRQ
T1 sequence (Q63787 whole entry partner): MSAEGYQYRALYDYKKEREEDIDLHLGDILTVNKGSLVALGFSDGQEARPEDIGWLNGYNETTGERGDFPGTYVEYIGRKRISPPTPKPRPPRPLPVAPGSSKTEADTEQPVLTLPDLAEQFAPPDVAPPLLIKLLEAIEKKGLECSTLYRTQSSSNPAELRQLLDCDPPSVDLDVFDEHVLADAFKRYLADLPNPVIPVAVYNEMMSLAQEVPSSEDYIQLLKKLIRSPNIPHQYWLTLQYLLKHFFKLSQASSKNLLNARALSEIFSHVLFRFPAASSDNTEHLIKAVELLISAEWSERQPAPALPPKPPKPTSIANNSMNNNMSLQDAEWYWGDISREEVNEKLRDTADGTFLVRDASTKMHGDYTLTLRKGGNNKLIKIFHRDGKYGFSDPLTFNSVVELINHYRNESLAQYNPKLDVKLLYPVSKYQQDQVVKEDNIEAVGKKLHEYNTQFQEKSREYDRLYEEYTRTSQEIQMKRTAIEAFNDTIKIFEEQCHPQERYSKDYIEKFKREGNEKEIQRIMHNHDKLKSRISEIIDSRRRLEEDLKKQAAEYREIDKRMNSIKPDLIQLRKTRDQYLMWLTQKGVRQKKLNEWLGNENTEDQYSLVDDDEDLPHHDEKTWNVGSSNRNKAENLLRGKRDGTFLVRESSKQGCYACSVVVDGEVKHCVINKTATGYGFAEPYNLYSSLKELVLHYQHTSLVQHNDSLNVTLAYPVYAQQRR

Compound | IC50 [nM]
Nc1ncc(-c2cc(N3C[C@H](CO)OC3=O)nc(N3CCOCC3)n2)c(C(F)(F)F)n1 [Example 20, (R)-3-(2′-Amino-2-morpholin-4-yl-4′-trifluoromethyl-[4,5′]bipyrimidinyl-6-yl)-5-hydroxymethyl-oxazolidin-2-one] | 111
Nc1ncc(-c2cc(N3C(=O)O[C@H]4COC[C@H]43)nc(N3CCOCC3)n2)c(C(F)(F)F)n1 [Example 21, (3aR,6aR)-3-(2′-amino-2-morpholino-4′-(trifluoromethyl)-[4,5′-bipyrimidin]-6-yl)-tetrahydrofuro[3,4-d]oxazol-2(3H)-one] | 61
C[C@H]1[C@@H](CCO)OC(=O)N1c1cc(-c2cnc(N)nc2C(F)(F)F)nc(N2CCOCC2)n1 [Example 23, (4S,5R)-3-(2′-Amino-2-morpholino-4′-(trifluoromethyl)-[4,5′-bipyrimidin]-6-yl)-5-(2-hydroxyethyl)-4-methyloxazolidin-2-one] | 16
